# Assay: (§1) The drug is tested on WLS-370 corresponding to human gut metagenome with ENA study accession number: PRJEB37062 and ENA sample accession number: ERS12561793 for biotransformation under anaerobic condition. The drug concentrations were measured over 9 timepoints collected between 0 and 24 hours of incubation by liquid-chromatography-coupled mass spectrometry (LC–MS)
# Settings: 2 µM
# Note: call rule not given here.
row,SMILES,Bacterial Biotransformation
1,COC1=CC(=O)C[C@@H](C)[C@]12Oc1c(Cl)c(OC)cc(OC)c1C2=O [GRISEOFULVIN],Compound metabolized
2,CC(CN(C)C)CN1c2ccccc2CCc2ccccc21.O=C(O)/C=C\C(=O)O (stereo not given) [TRIMIPRAMINE MALEATE],Compound NOT metabolized
3,CN1CCC(=C2c3ccccc3CCc3cccnc32)CC1.O=C(O)/C=C\C(=O)O.O=C(O)/C=C\C(=O)O [AZATADINE MALEATE],Compound NOT metabolized

# Assay: as §1, with “Z-027” for “WLS-370”, “to” for “to human gut”, “ERS12561826” for “ERS12561793”
# Settings: 2 µM
row,SMILES,Bacterial Biotransformation
1,COC1=CC(=O)C[C@@H](C)[C@]12Oc1c(Cl)c(OC)cc(OC)c1C2=O [GRISEOFULVIN],Compound metabolized
2,CC(CN(C)C)CN1c2ccccc2CCc2ccccc21.O=C(O)/C=C\C(=O)O (stereo not given) [TRIMIPRAMINE MALEATE],Compound NOT metabolized
3,CN1CCC(=C2c3ccccc3CCc3cccnc32)CC1.O=C(O)/C=C\C(=O)O.O=C(O)/C=C\C(=O)O [AZATADINE MALEATE],Compound NOT metabolized

# Settings: human gut metagenome, 24 h, 2 µM
row,SMILES,Bacterial Biotransformation
1,COC1=CC(=O)C[C@@H](C)[C@]12Oc1c(Cl)c(OC)cc(OC)c1C2=O [GRISEOFULVIN],Compound NOT metabolized
2,CC(CN(C)C)CN1c2ccccc2CCc2ccccc21.O=C(O)/C=C\C(=O)O (stereo not given) [TRIMIPRAMINE MALEATE],Compound metabolized
3,CN1CCC(=C2c3ccccc3CCc3cccnc32)CC1.O=C(O)/C=C\C(=O)O.O=C(O)/C=C\C(=O)O [AZATADINE MALEATE],Compound NOT metabolized

# Settings: human gut metagenome, 24 h, 2 µM
# Remark: another data set of the same source
row,SMILES,Bacterial Biotransformation
1,COC1=CC(=O)C[C@@H](C)[C@]12Oc1c(Cl)c(OC)cc(OC)c1C2=O [GRISEOFULVIN],Compound NOT metabolized
2,CC(CN(C)C)CN1c2ccccc2CCc2ccccc21.O=C(O)/C=C\C(=O)O (stereo not given) [TRIMIPRAMINE MALEATE],Compound metabolized
3,CN1CCC(=C2c3ccccc3CCc3cccnc32)CC1.O=C(O)/C=C\C(=O)O.O=C(O)/C=C\C(=O)O [AZATADINE MALEATE],Compound NOT metabolized

# Assay: as §1, with “Z-024” for “WLS-370”, “pig” for “human”, “ERS12561823” for “ERS12561793”
# Settings: 2 µM
row,SMILES,Bacterial Biotransformation
1,COC1=CC(=O)C[C@@H](C)[C@]12Oc1c(Cl)c(OC)cc(OC)c1C2=O [GRISEOFULVIN],Compound metabolized
2,CC(CN(C)C)CN1c2ccccc2CCc2ccccc21.O=C(O)/C=C\C(=O)O (stereo not given) [TRIMIPRAMINE MALEATE],Compound metabolized
3,CN1CCC(=C2c3ccccc3CCc3cccnc32)CC1.O=C(O)/C=C\C(=O)O.O=C(O)/C=C\C(=O)O [AZATADINE MALEATE],Compound NOT metabolized

# Settings: human gut metagenome, 24 h, 2 µM
# Remark: another data set of the same source
row,SMILES,Bacterial Biotransformation
1,COC1=CC(=O)C[C@@H](C)[C@]12Oc1c(Cl)c(OC)cc(OC)c1C2=O [GRISEOFULVIN],Compound metabolized
2,CC(CN(C)C)CN1c2ccccc2CCc2ccccc21.O=C(O)/C=C\C(=O)O (stereo not given) [TRIMIPRAMINE MALEATE],Compound metabolized
3,CN1CCC(=C2c3ccccc3CCc3cccnc32)CC1.O=C(O)/C=C\C(=O)O.O=C(O)/C=C\C(=O)O [AZATADINE MALEATE],Compound NOT metabolized

# Assay: as §1, with “Z-004” for “WLS-370”, “to” for “to human gut”, “ERS12561804” for “ERS12561793”
# Settings: 2 µM
row,SMILES,Bacterial Biotransformation
1,COC1=CC(=O)C[C@@H](C)[C@]12Oc1c(Cl)c(OC)cc(OC)c1C2=O [GRISEOFULVIN],Compound metabolized
2,CC(CN(C)C)CN1c2ccccc2CCc2ccccc21.O=C(O)/C=C\C(=O)O (stereo not given) [TRIMIPRAMINE MALEATE],Compound NOT metabolized
3,CN1CCC(=C2c3ccccc3CCc3cccnc32)CC1.O=C(O)/C=C\C(=O)O.O=C(O)/C=C\C(=O)O [AZATADINE MALEATE],Compound NOT metabolized

# Assay: as §1, with “WLS-170” for “WLS-370”, “ERS12561762” for “ERS12561793”
# Settings: 2 µM
row,SMILES,Bacterial Biotransformation
1,COC1=CC(=O)C[C@@H](C)[C@]12Oc1c(Cl)c(OC)cc(OC)c1C2=O [GRISEOFULVIN],Compound metabolized
2,CC(CN(C)C)CN1c2ccccc2CCc2ccccc21.O=C(O)/C=C\C(=O)O (stereo not given) [TRIMIPRAMINE MALEATE],Compound metabolized
3,CN1CCC(=C2c3ccccc3CCc3cccnc32)CC1.O=C(O)/C=C\C(=O)O.O=C(O)/C=C\C(=O)O [AZATADINE MALEATE],Compound NOT metabolized

# Assay: as §1, with “Z-020” for “WLS-370”, “rabbit” for “human”, “ERS12561819” for “ERS12561793”
# Settings: 2 µM
row,SMILES,Bacterial Biotransformation
1,COC1=CC(=O)C[C@@H](C)[C@]12Oc1c(Cl)c(OC)cc(OC)c1C2=O [GRISEOFULVIN],Compound NOT metabolized
2,CC(CN(C)C)CN1c2ccccc2CCc2ccccc21.O=C(O)/C=C\C(=O)O (stereo not given) [TRIMIPRAMINE MALEATE],Compound NOT metabolized
3,CN1CCC(=C2c3ccccc3CCc3cccnc32)CC1.O=C(O)/C=C\C(=O)O.O=C(O)/C=C\C(=O)O [AZATADINE MALEATE],Compound NOT metabolized

# Assay: as §1, with “Z-030” for “WLS-370”, “mouse” for “human”, “ERS12561829” for “ERS12561793”
# Settings: 2 µM
row,SMILES,Bacterial Biotransformation
1,COC1=CC(=O)C[C@@H](C)[C@]12Oc1c(Cl)c(OC)cc(OC)c1C2=O [GRISEOFULVIN],Compound NOT metabolized
2,CC(CN(C)C)CN1c2ccccc2CCc2ccccc21.O=C(O)/C=C\C(=O)O (stereo not given) [TRIMIPRAMINE MALEATE],Compound NOT metabolized
3,CN1CCC(=C2c3ccccc3CCc3cccnc32)CC1.O=C(O)/C=C\C(=O)O.O=C(O)/C=C\C(=O)O [AZATADINE MALEATE],Compound NOT metabolized

# Settings: human gut metagenome, 24 h, 2 µM
# Remark: another data set of the same source
row,SMILES,Bacterial Biotransformation
1,COC1=CC(=O)C[C@@H](C)[C@]12Oc1c(Cl)c(OC)cc(OC)c1C2=O [GRISEOFULVIN],Compound metabolized
2,CC(CN(C)C)CN1c2ccccc2CCc2ccccc21.O=C(O)/C=C\C(=O)O (stereo not given) [TRIMIPRAMINE MALEATE],Compound NOT metabolized
3,CN1CCC(=C2c3ccccc3CCc3cccnc32)CC1.O=C(O)/C=C\C(=O)O.O=C(O)/C=C\C(=O)O [AZATADINE MALEATE],Compound NOT metabolized

# Assay: as §1, with “Z-028” for “WLS-370”, “mouse” for “human”, “ERS12561827” for “ERS12561793”
# Settings: 2 µM
row,SMILES,Bacterial Biotransformation
1,COC1=CC(=O)C[C@@H](C)[C@]12Oc1c(Cl)c(OC)cc(OC)c1C2=O [GRISEOFULVIN],Compound metabolized
2,CC(CN(C)C)CN1c2ccccc2CCc2ccccc21.O=C(O)/C=C\C(=O)O (stereo not given) [TRIMIPRAMINE MALEATE],Compound NOT metabolized
3,CN1CCC(=C2c3ccccc3CCc3cccnc32)CC1.O=C(O)/C=C\C(=O)O.O=C(O)/C=C\C(=O)O [AZATADINE MALEATE],Compound NOT metabolized

# Settings: human gut metagenome, 24 h, 2 µM
# Remark: another data set of the same source
row,SMILES,Bacterial Biotransformation
1,COC1=CC(=O)C[C@@H](C)[C@]12Oc1c(Cl)c(OC)cc(OC)c1C2=O [GRISEOFULVIN],Compound metabolized
2,CC(CN(C)C)CN1c2ccccc2CCc2ccccc21.O=C(O)/C=C\C(=O)O (stereo not given) [TRIMIPRAMINE MALEATE],Compound metabolized
3,CN1CCC(=C2c3ccccc3CCc3cccnc32)CC1.O=C(O)/C=C\C(=O)O.O=C(O)/C=C\C(=O)O [AZATADINE MALEATE],Compound NOT metabolized

# Settings: human gut metagenome, 24 h, 2 µM
# Remark: another data set of the same source
row,SMILES,Bacterial Biotransformation
1,COC1=CC(=O)C[C@@H](C)[C@]12Oc1c(Cl)c(OC)cc(OC)c1C2=O [GRISEOFULVIN],Compound metabolized
2,CC(CN(C)C)CN1c2ccccc2CCc2ccccc21.O=C(O)/C=C\C(=O)O (stereo not given) [TRIMIPRAMINE MALEATE],Compound metabolized
3,CN1CCC(=C2c3ccccc3CCc3cccnc32)CC1.O=C(O)/C=C\C(=O)O.O=C(O)/C=C\C(=O)O [AZATADINE MALEATE],Compound NOT metabolized

# Settings: human gut metagenome, 24 h, 2 µM
# Remark: another data set of the same source
row,SMILES,Bacterial Biotransformation
1,COC1=CC(=O)C[C@@H](C)[C@]12Oc1c(Cl)c(OC)cc(OC)c1C2=O [GRISEOFULVIN],Compound NOT metabolized
2,CC(CN(C)C)CN1c2ccccc2CCc2ccccc21.O=C(O)/C=C\C(=O)O (stereo not given) [TRIMIPRAMINE MALEATE],Compound NOT metabolized
3,CN1CCC(=C2c3ccccc3CCc3cccnc32)CC1.O=C(O)/C=C\C(=O)O.O=C(O)/C=C\C(=O)O [AZATADINE MALEATE],Compound metabolized

# Assay: as §1, with “Z-001” for “WLS-370”, “mouse” for “human”, “ERS12561801” for “ERS12561793”
# Settings: 2 µM
row,SMILES,Bacterial Biotransformation
1,COC1=CC(=O)C[C@@H](C)[C@]12Oc1c(Cl)c(OC)cc(OC)c1C2=O [GRISEOFULVIN],Compound metabolized
2,CC(CN(C)C)CN1c2ccccc2CCc2ccccc21.O=C(O)/C=C\C(=O)O (stereo not given) [TRIMIPRAMINE MALEATE],Compound NOT metabolized
3,CN1CCC(=C2c3ccccc3CCc3cccnc32)CC1.O=C(O)/C=C\C(=O)O.O=C(O)/C=C\C(=O)O [AZATADINE MALEATE],Compound NOT metabolized

# Assay: as §1, with “Z-002” for “WLS-370”, “rabbit” for “human”, “ERS12561802” for “ERS12561793”
# Settings: 2 µM
row,SMILES,Bacterial Biotransformation
1,COC1=CC(=O)C[C@@H](C)[C@]12Oc1c(Cl)c(OC)cc(OC)c1C2=O [GRISEOFULVIN],Compound metabolized
2,CC(CN(C)C)CN1c2ccccc2CCc2ccccc21.O=C(O)/C=C\C(=O)O (stereo not given) [TRIMIPRAMINE MALEATE],Compound NOT metabolized
3,CN1CCC(=C2c3ccccc3CCc3cccnc32)CC1.O=C(O)/C=C\C(=O)O.O=C(O)/C=C\C(=O)O [AZATADINE MALEATE],Compound NOT metabolized

# Assay: as §1, with “Z-010” for “WLS-370”, “to” for “to human gut”, “ERS12561810” for “ERS12561793”
# Settings: 2 µM
row,SMILES,Bacterial Biotransformation
1,COC1=CC(=O)C[C@@H](C)[C@]12Oc1c(Cl)c(OC)cc(OC)c1C2=O [GRISEOFULVIN],Compound metabolized
2,CC(CN(C)C)CN1c2ccccc2CCc2ccccc21.O=C(O)/C=C\C(=O)O (stereo not given) [TRIMIPRAMINE MALEATE],Compound NOT metabolized
3,CN1CCC(=C2c3ccccc3CCc3cccnc32)CC1.O=C(O)/C=C\C(=O)O.O=C(O)/C=C\C(=O)O [AZATADINE MALEATE],Compound NOT metabolized

# Assay: as §1, with “Z-026” for “WLS-370”, “to” for “to human gut”, “ERS12561825” for “ERS12561793”
# Settings: 2 µM
row,SMILES,Bacterial Biotransformation
1,COC1=CC(=O)C[C@@H](C)[C@]12Oc1c(Cl)c(OC)cc(OC)c1C2=O [GRISEOFULVIN],Compound metabolized
2,CC(CN(C)C)CN1c2ccccc2CCc2ccccc21.O=C(O)/C=C\C(=O)O (stereo not given) [TRIMIPRAMINE MALEATE],Compound metabolized
3,CN1CCC(=C2c3ccccc3CCc3cccnc32)CC1.O=C(O)/C=C\C(=O)O.O=C(O)/C=C\C(=O)O [AZATADINE MALEATE],Compound NOT metabolized

# Assay: as §1, with “WLS-090” for “WLS-370”, “ERS12561753” for “ERS12561793”
# Settings: 2 µM
row,SMILES,Bacterial Biotransformation
1,COC1=CC(=O)C[C@@H](C)[C@]12Oc1c(Cl)c(OC)cc(OC)c1C2=O [GRISEOFULVIN],Compound NOT metabolized
2,CC(CN(C)C)CN1c2ccccc2CCc2ccccc21.O=C(O)/C=C\C(=O)O (stereo not given) [TRIMIPRAMINE MALEATE],Compound metabolized
3,CN1CCC(=C2c3ccccc3CCc3cccnc32)CC1.O=C(O)/C=C\C(=O)O.O=C(O)/C=C\C(=O)O [AZATADINE MALEATE],Compound NOT metabolized

# Source: ChEMBL document CHEMBL5724914, “Linking interpersonal differences in gut microbiota composition and drug biotransformation activity” (2024)
